Measurements from PubChem BioAssay (NCI).
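Growth conditions: 96-well plates. Treatment: test compound, 48 hours, 5 concentrations. Analysis: linear interpolation between bracketing concentrations; unreached endpoints set to highest concentration. The concentration for full growth arrest is given as TGI.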

Experiments:
Experiment in all cases: growth of human tumour cells (NCI), 48 h
OVCAR-4 ovarian = system: OVCAR-4 ovarian
HCT-116 colon = system: HCT-116 colon
DU-145 prostate = system: DU-145 prostate
RXF 393 renal = system: RXF 393 renal
K-562 leukemia = system: K-562 leukemia
SNB-19 CNS = system: SNB-19 CNS
T-47D breast = system: T-47D breast
PC-3 prostate = system: PC-3 prostate
SF-295 CNS = system: SF-295 CNS
SK-MEL-5 melanoma = system: SK-MEL-5 melanoma
MDA-MB-231 breast = system: MDA-MB-231 breast
786-0 renal = system: 786-0 renal
OVCAR-5 ovarian = system: OVCAR-5 ovarian
IGROV1 ovarian = system: IGROV1 ovarian
HL-60(TB) leukemia = system: HL-60(TB) leukemia
HOP-92 NSCLC = system: HOP-92 NSCLC
KM12 colon = system: KM12 colon
HT29 colon = system: HT29 colon
SW-620 colon = system: SW-620 colon
HCT-15 colon = system: HCT-15 colon
HCC-2998 colon = system: HCC-2998 colon
HOP-62 NSCLC = system: HOP-62 NSCLC
MCF7 breast = system: MCF7 breast
SK-OV-3 ovarian = system: SK-OV-3 ovarian
SN12C renal = system: SN12C renal
UACC-62 melanoma = system: UACC-62 melanoma
CCRF-CEM leukemia = system: CCRF-CEM leukemia
UO-31 renal = system: UO-31 renal
NCI-H522 lung = system: NCI-H522 lung
OVCAR-8 ovarian = system: OVCAR-8 ovarian
HS 578T breast = system: HS 578T breast
COLO 205 colon = system: COLO 205 colon
SK-MEL-2 melanoma = system: SK-MEL-2 melanoma
EKVX NSCLC = system: EKVX NSCLC
UACC-257 melanoma = system: UACC-257 melanoma
U251 CNS = system: U251 CNS
NCI-H226 lung = system: NCI-H226 lung
RPMI-8226 leukemia = system: RPMI-8226 leukemia
SF-539 CNS = system: SF-539 CNS
NCI-H23 lung = system: NCI-H23 lung
BT-549 breast = system: BT-549 breast
NCI-H460 lung = system: NCI-H460 lung
ACHN renal = system: ACHN renal
SNB-75 CNS = system: SNB-75 CNS
M14 melanoma = system: M14 melanoma
A549 NSCLC = system: A549 NSCLC
TK-10 renal = system: TK-10 renal
OVCAR-3 ovarian = system: OVCAR-3 ovarian
MDA-MB-435 = system: MDA-MB-435
CAKI-1 renal = system: CAKI-1 renal
A498 renal = system: A498 renal
NCI/ADR-RES ovarian = system: NCI/ADR-RES ovarian
MOLT-4 leukemia = system: MOLT-4 leukemia
SF-268 CNS = system: SF-268 CNS
SK-MEL-28 melanoma = system: SK-MEL-28 melanoma
LOX IMVI melanoma = system: LOX IMVI melanoma
MALME-3M melanoma = system: MALME-3M melanoma

Measured: TGI

NC1=CN(Cc2ccccc2)C2=N/C(=C\c3ccccc3)C(=O)N12
> 100 µM: OVCAR-4 ovarian | HCT-116 colon | DU-145 prostate | RXF 393 renal | K-562 leukemia | SNB-19 CNS | T-47D breast | PC-3 prostate | SF-295 CNS | SK-MEL-5 melanoma | MDA-MB-231 breast | 786-0 renal | OVCAR-5 ovarian | IGROV1 ovarian | HL-60(TB) leukemia | HOP-92 NSCLC | KM12 colon | HT29 colon | SW-620 colon | HCT-15 colon | HCC-2998 colon | HOP-62 NSCLC | MCF7 breast | SK-OV-3 ovarian | SN12C renal | UACC-62 melanoma | CCRF-CEM leukemia | UO-31 renal | NCI-H522 lung | OVCAR-8 ovarian | HS 578T breast | COLO 205 colon | SK-MEL-2 melanoma | EKVX NSCLC | UACC-257 melanoma | U251 CNS | NCI-H226 lung | RPMI-8226 leukemia | SF-539 CNS | NCI-H23 lung | BT-549 breast | NCI-H460 lung | ACHN renal | SNB-75 CNS | M14 melanoma | A549 NSCLC | TK-10 renal | OVCAR-3 ovarian | MDA-MB-435 | CAKI-1 renal | A498 renal | NCI/ADR-RES ovarian | MOLT-4 leukemia | SF-268 CNS | SK-MEL-28 melanoma | LOX IMVI melanoma | MALME-3M melanoma
